In publication PMC11813896, “Bis(7)-harmine derivatives as potential multi-target anti-Alzheimer agents” (Frontiers in Chemistry, 2025):

Tests used:
hAChE = hAChE (Homo sapiens, UniProt P22303); experiment: biochemical; details: for inhibition at 1 µM: compound at 1 μM, read-out: inhibition of hAChE in primary screening; for IC50: Mean ± SD from 3-5 assays, read-out: IC50 (nM) for cholinesterase hAChE
Experimental: 50 μL of hAChE (0.02 unit/mL) or hBChE (0.02 unit/mL) were incubated with 10 μL of the compound in 96-well plates at 37°C for 6 min. Subsequently, 30 μL of a substrate solution containing acetylthiocholine iodide (ATCI) or butyrylthiocholine iodide (BTCI) at a concentration of 0.01 M was added, and the mixture was further incubated at 37°C for an additional duration of 12 min.

Aβ 1−42 = Aβ 1−42 (Homo sapiens, UniProt P05067); experiment: Thioflavin T fluorescence assay, Aβ 1−42 self-aggregation; type: biochemical; details: for inhibition percent ratio of self-induced Aβ 1-42 aggregation: compound at 20 μM
Experimental: The thioflavin T (Th-T) fluorescence assay was used to assess the inhibition of Aβ 1−42 self-aggregation. […] Subsequently, the reaction was terminated to a final volume of 200 μL using Th-T (10 μM) solution.

hBuChE = hBuChE (Homo sapiens, UniProt P06276); experiment: Ellman's assay, hBuChE inhibition; type: biochemical; details: for inhibition at 1 µM: compound at 1 μM, read-out: inhibition of hBuChE in primary screening; for IC50: Mean ± SD from 3-5 assays, read-out: IC50 (nM) for cholinesterase hBuChE
Experimental: The Ellman’s assay was utilized to assess the inhibitory potential of novel bis(7)-harmine derivatives against hAChE and hBuChE. 50 μL of hAChE (0.02 unit/mL) or hBChE (0.02 unit/mL) were incubated with 10 μL of the compound in 96-well plates at 37°C for 6 min. Subsequently, 30 μL of a substrate solution containing acetylthiocholine iodide (ATCI) or butyrylthiocholine iodide (BTCI) at a concentration of 0.01 M was added, and the mixture was further incubated at 37°C for an additional duration of 12 min. Finally, the activity was measured by adding 150 μL of a solution containing 5,5′−dithiobis (2-nitrobenzoic acid) (DTNB) at a concentration of 0.01 M, followed by measuring absorbance at a wavelength of 415 nm using an Evolution 300 PC UV-Vis Spectrophotometer.

recombinant hMAO-B = biological target: T1, recombinant hMAO-B (Homo sapiens, UniProt P27338); experiment: biochemical; details: for inhibition at 1 µM: compound at 1 μM, read-out: inhibition of hMAO-B in primary screening
T1 construct: purchased Sigma-Aldrich
T1 sequence (P27338 1-520): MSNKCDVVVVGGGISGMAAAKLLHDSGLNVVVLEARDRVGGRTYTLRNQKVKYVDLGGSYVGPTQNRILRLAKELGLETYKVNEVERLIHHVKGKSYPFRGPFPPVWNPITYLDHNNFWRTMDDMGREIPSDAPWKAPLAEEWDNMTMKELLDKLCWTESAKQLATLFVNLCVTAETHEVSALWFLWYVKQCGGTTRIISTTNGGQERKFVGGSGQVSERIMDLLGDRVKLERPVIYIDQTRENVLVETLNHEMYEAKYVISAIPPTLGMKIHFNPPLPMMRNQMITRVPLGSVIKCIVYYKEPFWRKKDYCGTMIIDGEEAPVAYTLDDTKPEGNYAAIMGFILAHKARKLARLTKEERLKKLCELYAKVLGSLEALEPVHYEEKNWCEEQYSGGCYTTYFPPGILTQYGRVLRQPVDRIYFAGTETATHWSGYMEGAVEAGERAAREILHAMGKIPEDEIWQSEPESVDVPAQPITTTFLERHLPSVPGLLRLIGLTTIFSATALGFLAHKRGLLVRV
Experimental: (§1) Briefly, the compounds under investigation and the reference inhibitor were preincubated with kynuramine at 37°C for 10 min in 96-well microplates. […] The enzymatic reactions were terminated by adding 400 μL of 2 N NaOH and 1,000 μL of water, followed by centrifugation at 16,000 g for 10 min. Subsequently, the concentrations of MAOs that produced 4-hydroxyquinoline were determined by measuring the fluorescence of the supernatant using a Varioskan Flash Multimode Reader ([…]) with excitation and emission wavelengths set at 310 nm and 400 nm, respectively. The IC50 values were calculated from dose-response curves and expressed as the mean ± standard deviation. These values were determined based on at least three independent experiments, each performed in triplicate.

recombinant hMAO-A = biological target: T2, recombinant hMAO-A (Homo sapiens, UniProt P21397); experiment: biochemical; details: for inhibition at 1 µM: compound at 1 μM, read-out: inhibition of hMAO-A in primary screening; for IC50: mean ± SD, read-out: IC50 (nM) for monoamine oxidases hMAO-A
T2 construct: purchased Sigma-Aldrich
T2 sequence (P21397 1-527): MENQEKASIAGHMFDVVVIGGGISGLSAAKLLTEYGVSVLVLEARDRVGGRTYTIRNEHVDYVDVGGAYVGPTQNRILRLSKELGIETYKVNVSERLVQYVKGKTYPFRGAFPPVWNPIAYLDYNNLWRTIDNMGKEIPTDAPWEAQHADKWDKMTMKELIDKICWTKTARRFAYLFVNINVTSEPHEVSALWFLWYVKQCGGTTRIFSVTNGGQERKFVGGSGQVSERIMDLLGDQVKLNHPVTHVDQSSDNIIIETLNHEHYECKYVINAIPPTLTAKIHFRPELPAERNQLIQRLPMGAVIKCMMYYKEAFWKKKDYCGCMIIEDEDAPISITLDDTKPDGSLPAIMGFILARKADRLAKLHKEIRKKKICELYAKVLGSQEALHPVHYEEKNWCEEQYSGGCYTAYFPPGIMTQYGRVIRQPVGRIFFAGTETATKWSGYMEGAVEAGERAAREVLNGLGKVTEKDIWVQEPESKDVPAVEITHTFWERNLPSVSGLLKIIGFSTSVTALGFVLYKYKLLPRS
Experimental: as §1

Chain of hBuChE (P06276 29-602): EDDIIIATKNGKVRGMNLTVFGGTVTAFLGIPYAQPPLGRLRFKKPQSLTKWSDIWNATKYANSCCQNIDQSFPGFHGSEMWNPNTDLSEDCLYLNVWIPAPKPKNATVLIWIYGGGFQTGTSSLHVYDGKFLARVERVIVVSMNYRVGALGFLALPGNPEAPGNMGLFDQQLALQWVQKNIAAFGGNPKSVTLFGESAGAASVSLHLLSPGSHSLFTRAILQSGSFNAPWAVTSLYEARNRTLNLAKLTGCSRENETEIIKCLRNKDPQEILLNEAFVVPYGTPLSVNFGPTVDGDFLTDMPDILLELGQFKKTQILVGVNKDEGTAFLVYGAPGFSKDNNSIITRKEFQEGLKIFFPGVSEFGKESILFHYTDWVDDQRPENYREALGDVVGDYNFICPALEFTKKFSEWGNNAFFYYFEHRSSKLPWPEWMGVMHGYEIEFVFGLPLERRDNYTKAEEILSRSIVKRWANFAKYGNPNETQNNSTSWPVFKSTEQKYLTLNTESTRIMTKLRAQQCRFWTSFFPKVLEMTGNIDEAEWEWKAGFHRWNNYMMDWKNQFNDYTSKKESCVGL
Chain of hAChE (P22303 32-614): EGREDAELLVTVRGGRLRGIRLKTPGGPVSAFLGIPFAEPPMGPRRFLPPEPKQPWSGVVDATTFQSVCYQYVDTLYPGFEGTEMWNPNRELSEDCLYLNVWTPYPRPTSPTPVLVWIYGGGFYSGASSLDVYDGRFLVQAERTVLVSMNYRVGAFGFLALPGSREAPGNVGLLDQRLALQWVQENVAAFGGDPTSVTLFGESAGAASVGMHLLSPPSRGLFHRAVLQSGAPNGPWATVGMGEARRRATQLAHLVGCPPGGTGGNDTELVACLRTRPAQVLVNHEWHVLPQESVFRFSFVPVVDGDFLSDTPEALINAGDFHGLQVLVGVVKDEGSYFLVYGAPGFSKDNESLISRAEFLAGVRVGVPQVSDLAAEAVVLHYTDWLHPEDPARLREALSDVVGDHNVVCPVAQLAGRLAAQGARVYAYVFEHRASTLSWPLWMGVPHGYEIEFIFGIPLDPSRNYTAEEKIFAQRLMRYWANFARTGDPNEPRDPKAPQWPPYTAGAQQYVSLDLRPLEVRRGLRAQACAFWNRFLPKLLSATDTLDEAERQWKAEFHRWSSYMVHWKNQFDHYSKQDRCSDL
Chain of Aβ 1−42 (P05067 672-713 limits assumed): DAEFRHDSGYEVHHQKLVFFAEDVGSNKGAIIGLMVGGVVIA

In the case of `Cc1nccc2c3ccc(OCCCCOc4ccc5c6ccnc(C)c6n(C)c5c4)cc3n(C)c12` [Compound 4a, 1,4-bis ((1,9-dimethyl-9H-pyrido [3,4-b]indol-7-yl)oxy)butane], the inhibition at 1 µM (hAChE) is reported as 36.3%, the “inhibition percent ratio of self-induced Aβ 1-42 aggregation” value (“inhibition percent ratio” below) (Aβ 1−42) is reported as 39.3% and the inhibition at 1 µM (hBuChE) is reported as 30.5%. For the same compound, the inhibition at 1 µM (recombinant hMAO-B) was 13.8% and the inhibition at 1 µM (recombinant hMAO-A) was 41.5%.
With `CCn1c2cc(OCCCCOc3ccc4c5ccnc(C)c5n(CC)c4c3)ccc2c2ccnc(C)c21` [Compound 4b, 1,4-bis ((9-ethyl-1-methyl-9H-pyrido [3,4-b]indol-7-yl)oxy)butane] the “S.I. Selectivity index IC50(hBuChE)/IC50(hAChE)” value (hAChE) was over 9.9, the IC50 (hAChE) was 101 ± 6.8 nM and the “inhibition percent ratio” value (Aβ 1−42) was 27.6%. For the same compound, the inhibition at 1 µM (hBuChE) was 36.7%, the inhibition at 1 µM (recombinant hMAO-B) was 28.6% and the “S.I. Selectivity index IC50(hMAO-B)/IC50(hMAO-A)” value (recombinant hMAO-A) was over 1.4. The IC50 (recombinant hMAO-A) was 686 ± 43.5 nM.
For `CCCn1c2cc(OCCCCOc3ccc4c5ccnc(C)c5n(CCC)c4c3)ccc2c2ccnc(C)c21` [Compound 4c, 1,4-bis ((1-methyl-9-propyl-9H-pyrido [3,4-b]indol-7-yl)oxy)butane], the “S.I. Selectivity index IC50(hBuChE)/IC50(hAChE)” value (hAChE) was 10.2, the IC50 (hAChE) was 68 ± 5.1 nM and the “inhibition percent ratio” value (Aβ 1−42) was 33.2%. It also gave an IC50 (hBuChE) of 694 ± 43.2 nM, an inhibition at 1 µM (recombinant hMAO-B) of 17.8% and an inhibition at 1 µM (recombinant hMAO-A) of 48.6%.
In the case of `C=CCn1c2cc(OCCCCOc3ccc4c5ccnc(C)c5n(CC=C)c4c3)ccc2c2ccnc(C)c21` [Compound 4d, 1,4-bis ((9-allyl-1-methyl-9H-pyrido [3,4-b]indol-7-yl)oxy)butane], the inhibition at 1 µM (hAChE) is reported as 45.6%, the “inhibition percent ratio” value (Aβ 1−42) is reported as 35.5% and the inhibition at 1 µM (hBuChE) is reported as 32.9%. The inhibition at 1 µM (recombinant hMAO-B) was 30.3% and the inhibition at 1 µM (recombinant hMAO-A) was 49.3%.
For `Cc1nccc2c3ccc(OCCCCCOc4ccc5c6ccnc(C)c6n(C)c5c4)cc3n(C)c12` [Compound 5a, 1,5-bis ((1,9-dimethyl-9H-pyrido [3,4-b]indol-7-yl)oxy)pentane], the “S.I. Selectivity index IC50(hBuChE)/IC50(hAChE)” value (hAChE) was 0.3, the IC50 (hAChE) was 827 ± 41.5 nM and the “inhibition percent ratio” value (Aβ 1−42) was 40.6%. For the same compound, the IC50 (hBuChE) was 256 ± 15.7 nM, the inhibition at 1 µM (recombinant hMAO-B) was 25.6% and the “S.I. Selectivity index IC50(hMAO-B)/IC50(hMAO-A)” value (recombinant hMAO-A) was over 4.1. It also gave an IC50 (recombinant hMAO-A) of 241 ± 13.8 nM.
With `CCn1c2cc(OCCCCCOc3ccc4c5ccnc(C)c5n(CC)c4c3)ccc2c2ccnc(C)c21` [Compound 5b, 1,5-bis ((9-ethyl-1-methyl-9H-pyrido [3,4-b]indol-7-yl)oxy)pentane] the “S.I. Selectivity index IC50(hBuChE)/IC50(hAChE)” value (hAChE) was 8.1, the IC50 (hAChE) was 115 ± 7.36 nM and the “inhibition percent ratio” value (Aβ 1−42) was 31.8%. It also gave an IC50 (hBuChE) of 928 ± 62.1 nM, an inhibition at 1 µM (recombinant hMAO-B) of 33.7% and an inhibition at 1 µM (recombinant hMAO-A) of 42.4%.
In the case of `CCCn1c2cc(OCCCCCOc3ccc4c5ccnc(C)c5n(CCC)c4c3)ccc2c2ccnc(C)c21` [Compound 5c, 1,5-bis ((1-methyl-9-propyl-9H-pyrido [3,4-b]indol-7-yl)oxy)pentane], the “S.I. Selectivity index IC50(hBuChE)/IC50(hAChE)” value (hAChE) is reported as over 13.7, the IC50 (hAChE) is reported as 73.8 ± 4.28 nM and the “inhibition percent ratio” value (Aβ 1−42) is reported as 29.4%. The inhibition at 1 µM (hBuChE) was 45.6%, the inhibition at 1 µM (recombinant hMAO-B) was 27.5% and the inhibition at 1 µM (recombinant hMAO-A) was 39.5%.
`C=CCn1c2cc(OCCCCCOc3ccc4c5ccnc(C)c5n(CC=C)c4c3)ccc2c2ccnc(C)c21` [Compound 5d, 1,5-bis ((9-allyl-1-methyl-9H-pyrido [3,4-b]indol-7-yl)oxy)pentane] was tested, and the “S.I. Selectivity index IC50(hBuChE)/IC50(hAChE)” value (hAChE) was over 3.4, the IC50 (hAChE) was 288 ± 21.3 nM and the “inhibition percent ratio” value (Aβ 1−42) was 43.6%. For the same compound, the inhibition at 1 µM (hBuChE) was 41.2%, the inhibition at 1 µM (recombinant hMAO-B) was 29.8% and the inhibition at 1 µM (recombinant hMAO-A) was 41.1%.
With `Cc1nccc2c3ccc(OCCCCCCOc4ccc5c6ccnc(C)c6n(C)c5c4)cc3n(C)c12` [Compound 6a, 1,6-bis ((1,9-dimethyl-9H-pyrido [3,4-b]indol-7-yl)oxy)hexane] the “S.I. Selectivity index IC50(hBuChE)/IC50(hAChE)” value (hAChE) was 0.7, the IC50 (hAChE) was 493 ± 30.3 nM and the IC50 (Aβ 1−42; Aβ 1-42 20 μM, 37°C, 24 h) was 19.8 ± 1.1 µM. The IC50 (hBuChE) was 331 ± 21.5 nM, the IC50 (recombinant hMAO-B; mean ± SD, read-out: IC50 (nM) for monoamine oxidases hMAO-B) was 863 ± 61.3 nM and the “S.I. Selectivity index IC50(hMAO-B)/IC50(hMAO-A)” value (recombinant hMAO-A) was 7.1. The IC50 (recombinant hMAO-A) was 123 ± 7.2 nM.
